The values that follow are results of earlier work, collected in publication PMC3606899 (Journal of molecular medicine (Berlin, Germany), 2012).

For the data set, the target named is PHD2 (Homo sapiens, UniProt Q9GZT9). Description: PHD inhibitor screen, IC50. The format is biochemical.
Chain of PHD2 (Q9GZT9 2-426): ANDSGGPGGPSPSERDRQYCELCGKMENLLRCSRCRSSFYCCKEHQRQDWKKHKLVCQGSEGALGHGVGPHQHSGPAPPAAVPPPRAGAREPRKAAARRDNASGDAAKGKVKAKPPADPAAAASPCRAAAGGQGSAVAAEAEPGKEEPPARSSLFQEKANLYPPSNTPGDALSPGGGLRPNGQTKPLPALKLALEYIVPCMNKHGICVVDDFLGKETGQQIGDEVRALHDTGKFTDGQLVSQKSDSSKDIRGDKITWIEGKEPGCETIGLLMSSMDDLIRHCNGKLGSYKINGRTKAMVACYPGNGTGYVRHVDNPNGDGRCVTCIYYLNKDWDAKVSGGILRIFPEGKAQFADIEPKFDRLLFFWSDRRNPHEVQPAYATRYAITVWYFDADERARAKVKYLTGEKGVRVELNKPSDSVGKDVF

As for AKB-4924, the IC50 (usually the concentration needed to halve the response being measured) was 14 µM.
